Data as given in patent US12209079B2 (GENERAL INCORPORATED ASSOCIATION PHARMA VALLEY PROJECT …, priority 2017, dated 2025).
Structures can show the parent of a compound that is named as a salt.

How the values were obtained:
IDO in A431 cells = biological target: T1, IDO in A431 cells (Homo sapiens, UniProt P14902); test: IDO cell-based assay, kynurenine production in IFN-γ stimulated A431 cells; conditions: A-431, 24 h; final concentration of the compound 10 μM; rate relative to culture without compound
T1 construct: endogenous in cells; host or cells: A431 cells, IFN-γ stimulated
T1 sequence (P14902 whole entry): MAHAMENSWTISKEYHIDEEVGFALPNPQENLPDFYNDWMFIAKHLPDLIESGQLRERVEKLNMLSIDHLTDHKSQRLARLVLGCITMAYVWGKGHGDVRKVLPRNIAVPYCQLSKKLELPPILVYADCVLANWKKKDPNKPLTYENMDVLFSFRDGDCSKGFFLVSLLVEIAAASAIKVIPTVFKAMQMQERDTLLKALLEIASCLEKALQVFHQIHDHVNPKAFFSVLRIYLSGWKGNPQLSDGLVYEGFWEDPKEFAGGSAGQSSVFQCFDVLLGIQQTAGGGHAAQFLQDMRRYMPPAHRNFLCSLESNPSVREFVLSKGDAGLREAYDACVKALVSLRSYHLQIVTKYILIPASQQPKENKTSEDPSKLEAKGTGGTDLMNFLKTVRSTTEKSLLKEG
Procedure, shortened: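 A431 cells were cultured 24 h, then preincubated 1 h with compound in medium containing 178 μM L-tryptophan, and stimulated with IFN-γ (diluted to 100 ng/mL before addition) for 24 h. Kynurenine was measured by p-dimethylbenzaldehyde absorbance at 460 nm, background-subtracted, and expressed as % production versus no-compound control.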

[1] = biological target: rhTDO (recombinant human TDO) (Homo sapiens, UniProt P48775); test: Enzyme assay using rhTDO (rate of kynurenine production); format: biochemical; conditions: 2 h; final concentration of the compound 10 μM; rate relative to reaction without compound; read-out: rhTDO-mediated kynurenine production
rhTDO (recombinant human TDO), sequence (P48775 whole entry): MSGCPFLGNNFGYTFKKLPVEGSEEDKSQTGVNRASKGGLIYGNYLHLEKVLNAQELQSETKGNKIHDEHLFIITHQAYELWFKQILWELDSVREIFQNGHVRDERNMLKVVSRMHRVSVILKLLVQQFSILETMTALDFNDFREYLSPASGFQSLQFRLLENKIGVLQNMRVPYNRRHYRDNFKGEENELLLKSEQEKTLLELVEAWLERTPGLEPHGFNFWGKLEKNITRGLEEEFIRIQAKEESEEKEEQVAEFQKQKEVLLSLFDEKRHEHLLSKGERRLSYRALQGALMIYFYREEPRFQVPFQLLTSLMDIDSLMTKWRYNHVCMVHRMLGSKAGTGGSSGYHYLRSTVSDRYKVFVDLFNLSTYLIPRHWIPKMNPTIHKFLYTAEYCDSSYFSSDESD
Procedure, shortened: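 Kynurenine output, as percent of untreated control after background subtraction, read at 490 nm with p-dimethylbenzaldehyde following TCA quench and 15 min heating at 50 °C. Reaction: rhTDO with compound, 10 min preincubation then 120 min at 37 °C, started by 20 mM tryptophan stock, in phosphate/ascorbate/methylene blue/catalase.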

[2] = biological target: rhIDO (recombinant human IDO) (Homo sapiens, UniProt P14902); test: Enzyme assay using rhIDO (rate of kynurenine production); format: biochemical; conditions: 2 h; final concentration of the compound 10 μM; rate relative to reaction without compound; read-out: rhIDO-mediated kynurenine production
rhIDO (recombinant human IDO), sequence (P14902 whole entry): as the sequence (P14902 whole entry) above
Procedure, shortened: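 rhIDO preincubated with compound 10 min at 37 °C in phosphate buffer with ascorbate, methylene blue and catalase; started with 2 mM tryptophan solution (stock) and run 120 min at 37 °C. Stopped with TCA and heated to convert N-formylkynurenine; kynurenine read at 490 nm after p-dimethylbenzaldehyde, background-subtracted, as % of no-compound control.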

TDO in A172 cells = biological target: T2, TDO in A172 cells (Homo sapiens, UniProt P48775); test: TDO cell-based assay, kynurenine production in A172 cells; conditions: A 172; final concentration of the compound 10 μM; rate relative to culture without compound
T2 construct: endogenous in cells; host or cells: A172 cells
T2 sequence (P48775 whole entry): as the sequence (P48775 whole entry) above
Procedure, shortened: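 A172 cells were preincubated with compound for 1 h, then given L-tryptophan (final 524 μM) for 24 h at 37 °C. Kynurenine was read at 460 nm after p-dimethylbenzaldehyde/TCA reagent, background-subtracted, and expressed as % of no-compound production.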

Structure (SMILES) | remaining activity at 10 µM (IDO in A431 cells) | remaining activity at 10 µM [1] | remaining activity at 10 µM [2] | remaining activity at 10 µM (TDO in A172 cells)
COc1ccc(/N=C(\N)SCc2cc(Cl)c(Cl)cc2CS/C(N)=N/c2ccc(OC)cc2)cc1 [Compound 124, (4,5-Dichloro-1,2-phenylene)bis(methylene) (E,E)-bis(N′-(4-methoxyphenyl)carbamimidothioate) dihydrobromide] | 10% | 20% | -1% | 0%
N/C(=N\c1cccc(Cl)c1)SCc1cc(Cl)c(Cl)cc1CS/C(N)=N/c1cccc(Cl)c1 [Compound 125, (4,5-Dichloro-1,2-phenylene)bis(methylene) (E,E)-bis(N′-(3-chlorophenyl)carbamimidothioate) dihydrobromide] | 11% | 7% | -2% | 3%
N/C(=N\c1ccc(Br)cc1)SCc1ccc(F)cc1CS/C(N)=N/c1ccc(Br)cc1 [Compound 126, (4-Fluoro-1,2-phenylene)bis(methylene) (E,E)-bis(N′-(4-bromophenyl)carbamimidothioate) dihydrobromide] | 13% | 6% | -1% | 10%
N/C(=N\c1ccc(F)cc1)SCc1ccc(F)cc1CS/C(N)=N/c1ccc(F)cc1 [Compound 127, (4-Fluoro-1,2-phenylene)bis(methylene) (E,E)-bis(N′-(4-fluorophenyl)carbamimidothioate) dihydrobromide] | 8% | 12% | 0% | 10%
COc1ccc(/N=C(\N)SCc2ccc(F)cc2CS/C(N)=N/c2ccc(OC)cc2)cc1 [Compound 128, (4-Fluoro-1,2-phenylene)bis(methylene) (E,E)-bis(N′-(4-methoxyphenyl)carbamimidothioate) dihydrobromide] | 11% | 14% | 3% | 8%
N/C(=N\c1ccc(F)c(Cl)c1)SCc1ccc(F)cc1CS/C(N)=N/c1ccc(F)c(Cl)c1 [Compound 129, (4-Fluoro-1,2-phenylene)bis(methylene) (E,E)-bis(N′-(3-chloro-4-fluorophenyl)carbamimidothioate) dihydrobromide] | 7% | 8% | -2% | 14%
N/C(=N\c1ccc(F)cc1F)SCc1ccc(F)cc1CS/C(N)=N/c1ccc(F)cc1F [Compound 130, (4-Fluoro-1,2-phenylene)bis(methylene) (E,E)-bis(N′-(2,4-difluorophenyl)carbamimidothioate) dihydrobromide] | 1% | 8% | 1% | 9%
N=C(N)SCc1cc(F)c(F)cc1CSC(=N)N [Compound 131, (4,5-Difluoro-1,2-phenylene)bis(methylene) dicarbamimidothioate dihydrobromide] | 5% | 3% | 7% | 6%
N/C(=N\c1ccc(Cl)cc1)SCc1cc(F)c(F)cc1CS/C(N)=N/c1ccc(Cl)cc1 [Compound 132, (4,5-Difluoro-1,2-phenylene)bis(methylene) (E,E)-bis(N′-(4-chlorophenyl)carbamimidothioate) dihydrobromide] | 11% | 5% | -2% | 5%
Fc1ccc(CSC2=NCN(CCc3ccc(Cl)c(Cl)c3)CN2)c(CSC2=NCN(CCc3ccc(Cl)c(Cl)c3)CN2)c1 [Compound 133, 6,6′-(((4-Fluoro-1,2-phenylene)bis(methylene))bis(sulfanediyl))bis(3-(3,4-dichlorophenethyl)-1,2,3,4-tetrahydro-1,3,5-triazine)] | 13% | 10% | 1% | 6%
N/C(=N\c1ccc(F)c(Cl)c1)SCc1cc(Cl)c(Cl)cc1CS/C(N)=N/c1ccc(F)c(Cl)c1 [Compound 134, (4,5-Dichloro-1,2-phenylene)bis(methylene) (E,E)-bis(N′-(3-chloro-4-fluorophenyl)carbamimidothioate) dihydrobromide] | 10% | 5% | -2% | 5%
N/C(=N\c1ccc(Br)cc1)SCc1cc(Cl)c(Cl)cc1CS/C(N)=N/c1ccc(Br)cc1 [Compound 135, (4,5-Dichloro-1,2-phenylene)bis(methylene) (E,E)-bis(N′-(4-bromophenyl)carbamimidothioate) dihydrobromide] | 12% | 8% | -2% | 0%
N/C(=N\c1cccc(Br)c1)SCc1cc(Cl)c(Cl)cc1CS/C(N)=N/c1cccc(Br)c1 [Compound 136, (4,5-Dichloro-1,2-phenylene)bis(methylene) (E,E)-bis(N′-(3-bromophenyl)carbamimidothioate) dihydrobromide] | 13% | 10% | -2% | 3%
N/C(=N\c1ccc(F)cc1)SCc1cc(Cl)c(Cl)cc1CS/C(N)=N/c1ccc(F)cc1 [Compound 137, (4,5-Dichloro-1,2-phenylene)bis(methylene) (E,E)-bis(N′-(4-fluorophenyl)carbamimidothioate) dihydrobromide] | 8% | 9% | -3% | 2%
Cc1ccc(/N=C(\N)SCc2cc(Cl)c(Cl)cc2CS/C(N)=N/c2ccc(C)cc2)cc1 [Compound 138, (4,5-Dichloro-1,2-phenylene)bis(methylene) (E,E)-bis(N′-(p-tolyl)carbamimidothioate) dihydrobromide] | 8% | 14% | -1% | 0%
Fc1ccc(CN2CN=C(SCc3cc(Cl)c(Cl)cc3CSC3=NCN(Cc4ccc(F)c(Cl)c4)CN3)NC2)cc1Cl [Compound 139, 6,6′-(((4,5-Dichloro-1,2-phenylene)bis(methylene))bis(sulfanediyl))bis(3-(3-chloro-4-fluorobenzyl)-1,2,3,4-tetrahydro-1,3,5-triazine)] | 8% | 14% | 24% | 11%
Fc1ccc(CSC2=NCN(CCc3ccc(C(F)(F)F)cc3)CN2)c(CSC2=NCN(CCc3ccc(C(F)(F)F)cc3)CN2)c1 [Compound 140, 6,6′-(((4-Fluoro-1,2-phenylene)bis(methylene))bis(sulfanediyl))bis(3-(4-(trifluoromethyl)phenethyl)-1,2,3,4-tetrahydro-1,3,5-triazine)] | 15% | 16% | 34% | 9%
